The target in one assay is T1, human JAK2 (Homo sapiens, UniProt O60674).
T1 construct: JAK2 (a.a. 828-1132); made in house; host or cells: insect cells (baculovirus)
The assay can be described thus: In vitro JAK kinase assay (Example G, HTRF), JAK2. As to conditions: ratio of IC50s JAK2 over JAK1, 1 mM ATP. It is filed as biochemical.

The target of the next assay is T2, human JAK1 (Homo sapiens, UniProt P23458).
T2 construct: human JAK1 (a.a. 837-1142); made in house; host or cells: insect cells (baculovirus)
The assay can be described thus: In vitro JAK kinase assay (Example G, HTRF), JAK1. The class given is biochemical. As to conditions: 1 mM ATP. Background: Time-resolved FRET reads energy transfer from a long-lived donor to a nearby acceptor.

T1 sequence (O60674 828-1132): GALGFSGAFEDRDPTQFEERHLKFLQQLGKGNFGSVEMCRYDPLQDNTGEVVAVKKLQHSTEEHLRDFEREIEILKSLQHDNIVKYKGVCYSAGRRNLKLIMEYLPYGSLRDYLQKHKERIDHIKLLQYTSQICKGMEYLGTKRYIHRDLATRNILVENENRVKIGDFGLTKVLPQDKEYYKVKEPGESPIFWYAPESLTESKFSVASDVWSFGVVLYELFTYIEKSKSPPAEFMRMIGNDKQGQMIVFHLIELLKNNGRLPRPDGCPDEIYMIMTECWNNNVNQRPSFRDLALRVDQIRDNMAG
T2 sequence (P23458 849-1154): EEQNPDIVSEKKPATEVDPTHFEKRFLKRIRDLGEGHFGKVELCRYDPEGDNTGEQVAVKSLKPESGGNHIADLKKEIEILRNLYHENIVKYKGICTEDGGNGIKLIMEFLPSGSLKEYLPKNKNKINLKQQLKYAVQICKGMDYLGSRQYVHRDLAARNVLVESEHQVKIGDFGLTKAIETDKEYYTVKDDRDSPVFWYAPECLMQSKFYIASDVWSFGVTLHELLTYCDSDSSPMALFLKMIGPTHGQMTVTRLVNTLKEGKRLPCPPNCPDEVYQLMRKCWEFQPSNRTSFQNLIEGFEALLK

On to `N#CCC(CN1CCN(C(=O)c2ccc(C#N)cc2F)CC1)n1ccc(-c2ncnc3[nH]ccc23)c1` (centres unmarked) [Compound 6, 4-[(4-{3-cyano-2-[3-(7H-pyrrolo[2,3-d]pyrimidin-4-yl)-1H-pyrrol-1-yl]propyl}piperazin-1-yl)carbonyl]-3-fluorobenzonitrile], for which, at human JAK2, the JAK2/JAK1 was greater than 10. Moreover, the IC50 (in general, the concentration at which inhibition is half-maximal) on human JAK1 was less than 10 nM.

For the origin of these results see patent US20190202840A1, “SALTS OF (S)-7-(1-(9H-PURIN-6-YLAMINO)ETHYL)-6-(3-FLUOROPHENYL)-3-METHYL-5H-THIAZOLO[3,2-A]PYRIMIDIN-5-ONE” (Incyte Corporation, priority 2015, published 2019).
